# Source: patent US9492382B2, “Hyperbranched polyester having a hydrophobic core for solubilizing active ingredients of low solubility” (BASF SE, priority 2009, dated 2016)
# Assay: physchem
# Conditions: pH 7, aqueous buffer, thermodynamic from solid
# Method: 2 g of polymer were weighed out into a 50 ml glass beaker. Then 0.2 g of each active ingredient was weighed out into the batch to give a supersaturated solution. […] The mixture was then stirred at room temperature for 72 hours, using a magnetic stirrer. After a rest time of one hour, excess (i.e., unsolubilized) active ingredient was removed by filtration. The resulting clear or opaque solution was then analyzed for its active ingredient content by means of UV spectroscopy or HPLC.
# The results are compiled in tables 2 and 3.
smiles,measurement,value
Clc1ccccc1C(c1ccccc1)(c1ccccc1)n1ccnc1 [Clotrimazole],solubility at 72 h,< 100 µg/mL
